≈ marks a conversion by molar mass, not a printed value. Where two headings read alike, the source gives them in different places.

Assay [1] concerns M. tb mc^26230-empty vector. The assay can be described thus: REMA, empty vector strain. Format: cell-based, Mycobacterium tuberculosis.
In another assay the test system is M. tb mc^26230-TesA. The assay can be described thus: microbe, parasite or virus in culture. Type of assay: cell-based, Mycobacterium tuberculosis.
For the next assay, the system named is M. tb mc^26230 WT. The assay can be described thus: microbe, parasite or virus in culture. Type of assay: cell-based.
The next assay concerns M. tb mc^26230-Rv0183. The assay can be described thus: microbe, parasite or virus in culture. Type of assay: cell-based, Mycobacterium tuberculosis.
The test system of another assay is M. tb mc^26230-LipH. The assay can be described thus: microbe, parasite or virus in culture. Format: cell-based, Mycobacterium tuberculosis. To be noted: for MIC50: REMA.
The test system of another assay is M. tb mc^26230-Ag85C. The assay can be described thus: microbe, parasite or virus in culture. Type of assay: cell-based, Mycobacterium tuberculosis.
The next assay concerns M. tb mc^26230-Ag85A. Briefly: microbe, parasite or virus in culture. Type of assay: cell-based, Mycobacterium tuberculosis.
Another assay concerns M. tb mc^26230-HsaD. The assay can be described thus: microbe, parasite or virus in culture. Format: cell-based, Mycobacterium tuberculosis. As to conditions: for MIC50: REMA.
Setting [2] is: Mycobacterium tuberculosis, REMA.

Turning to `CCCCCCCCCCCCCCCCOP1(=O)OCCC(C(=O)OC)=C(C)O1` (stereo not drawn) [CyC 17], the “MIC50 ratio mutant/WT” value in assay [1] is reported as 0.95; with M. tb mc^26230-TesA, 0.95; with M. tb mc^26230 WT, 1.00; in the assay with M. tb mc^26230-Rv0183 (M. tb mc^26230-Rv0183), 0.80; in the assay with M. tb mc^26230-LipH (M. tb mc^26230-LipH), 1.31; with M. tb mc^26230-Ag85C, 0.98. Also, the “MIC50 ratio mutant/WT” value in the assay with M. tb mc^26230-Ag85A amounted to 1.00; in the assay on M. tb mc^26230-HsaD (M. tb mc^26230-HsaD), 2.18. Also, the MIC50 is 0.52 ± 0.012 µM (≈ 0.232 µg/mL) with M. tb mc^26230-TesA (setting [2]); 0.44 ± 0.013 µM (≈ 0.196 µg/mL) in the assay on M. tb mc^26230-Rv0183 (Mycobacterium tuberculosis, M. tb mc^26230-Rv0183, REMA); 0.72 ± 0.020 µM (≈ 0.322 µg/mL) in the assay on M. tb mc^26230-LipH (M. tb mc^26230-LipH); 0.72 ± 0.02 µM (≈ 0.322 µg/mL) with M. tb mc^26230-LipH (Mycobacterium tuberculosis, M. tb mc^26230-LipH, read-out: MIC50); 0.54 ± 0.009 µM (≈ 0.241 µg/mL) against M. tb mc^26230-Ag85C (setting [2]); 0.55 ± 0.014 µM (≈ 0.246 µg/mL) in the assay with M. tb mc^26230-Ag85A (setting [2]). The MIC50 with M. tb mc^26230-HsaD (M. tb mc^26230-HsaD) came to 1.20 ± 0.026 µM (≈ 0.536 µg/mL); with M. tb mc^26230-HsaD (Mycobacterium tuberculosis, M. tb mc^26230-HsaD, read-out: MIC50), 1.2 ± 0.026 µM (≈ 0.536 µg/mL). Besides, the “increase in the MIC50 value compared to WT strain” value in the assay with M. tb mc^26230-LipH was “around 1.3 fold”. The “increase in MIC50 value compared to WT strain” value with M. tb mc^26230-HsaD is on record as 2.2 fold.
